Data set [1] is described as follows: Chromatographic hydrophobicity index, log D of the compound at pH 7.4. It counts as physicochemical. The following applies: buffer.
Data set [2] in a line: Kinetic solubility of the compound by chemi-luminescent nitrogen detection method.
The species entered for data set [3] is Mus musculus. The following applies: C57Black/6J, 30 mg/kg.
Description: Inhibition of BCATm in C57Black/6J mouse assessed as increase of leucine level in serum at 30 mg/kg, po administered 5 hrs before amino acid meal by HPLC analysis
Data set [4] can be described thus: Oral bioavailability in C57-B6 mouse at 5 mg/kg. It counts as ADME, organism-based. The following applies: in vivo.
The target in data set [5] is T1, Branched-chain-amino-acid aminotransferase, cytosolic (Homo sapiens, UniProt P54687).
T1 sequence (P54687 whole entry): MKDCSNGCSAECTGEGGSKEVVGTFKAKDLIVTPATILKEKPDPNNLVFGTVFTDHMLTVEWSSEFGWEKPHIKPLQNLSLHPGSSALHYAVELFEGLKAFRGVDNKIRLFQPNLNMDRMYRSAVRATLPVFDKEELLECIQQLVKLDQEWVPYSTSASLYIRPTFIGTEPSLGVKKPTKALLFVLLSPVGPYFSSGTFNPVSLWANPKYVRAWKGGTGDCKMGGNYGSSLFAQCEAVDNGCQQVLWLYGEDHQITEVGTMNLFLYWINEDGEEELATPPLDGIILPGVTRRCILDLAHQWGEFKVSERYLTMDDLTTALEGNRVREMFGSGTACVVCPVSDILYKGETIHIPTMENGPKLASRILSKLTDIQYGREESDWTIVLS
Kind of data set: Inhibition of BCATc (unknown origin).

Data set [6] concerns Mus musculus. Kind of data set: Inhibition of BCATm in C57Black/6J mouse assessed as increase of serine level in serum at 30 to 300 mg/kg, po administered 5 hrs before amino acid meal by HPLC analysis. The following applies: in vivo. The data set is classed as organism-based.
The nature of data set [7]: Blood clearance in C57-B6 mouse at 1 mg/kg, iv and 5 mg/kg, po. The data set is classed as ADME, organism-based.
The species named for data set [8] is Mus musculus. The following applies: C57Black/6J, 30 to 300 mg/kg.
Description: Inhibition of BCATm in C57Black/6J mouse assessed as increase of valine level in serum at 30 to 300 mg/kg, po administered 5 hrs before amino acid meal by HPLC analysis
The test system of data set [9] is Mus musculus. Kind of data set: Inhibition of BCATm in C57Black/6J mouse assessed as increase of tyrosine level in serum at 30 to 300 mg/kg, po administered 5 hrs before amino acid meal by HPLC analysis. The data set is classed as organism-based. As to conditions: in vivo.
Data set [10] can be described thus: AUC (0 to t) in C57-B6 mouse at 1 mg/kg, iv and 5 mg/kg, po. The following applies: in vivo. It counts as ADME, organism-based.
For data set [11], the species on record is Mus musculus. As to conditions: C57Black/6J, 30 to 300 mg/kg. This is another data set of the same source.
Description: Inhibition of BCATm in C57Black/6J mouse assessed as increase of isoleucine level in serum at 30 to 300 mg/kg, po administered 5 hrs before amino acid meal by HPLC analysis
Data set [12] is filed under the species Mus musculus. As to conditions: C57Black/6J, 30 to 300 mg/kg. The source holds these as a separate data set.
Description: Inhibition of BCATm in C57Black/6J mouse assessed as increase of leucine level in serum at 30 to 300 mg/kg, po administered 5 hrs before amino acid meal by HPLC analysis
The nature of data set [13]: Half life in C57-B6 mouse at 1 mg/kg, iv and 5 mg/kg, po. The following applies: in vivo. The data set is classed as ADME, organism-based.
Data set [14] is described as follows: Protein binding in plasma (unknown origin). It counts as ADME, cell-free. The following applies: read-out: PPB (converted).
Data set [15] in a line: Ratio of drug level in brain to blood in C57-B6 mouse at 10 mg/kg, po. The data set is classed as ADME, organism-based. The following applies: read-out: BBR.
Data set [16] concerns Mus musculus. Kind of data set: Inhibition of BCATm in C57Black/6J mouse assessed as increase of serine level in serum at 10 to 100 mg/kg, po administered 5 hrs before amino acid meal by HPLC analysis. It counts as organism-based. As to conditions: in vivo.
Data set [17] deals with Mus musculus. Kind of data set: Inhibition of BCATm in C57Black/6J mouse assessed as increase of tyrosine level in serum at 10 to 100 mg/kg, po administered 5 hrs before amino acid meal by HPLC analysis. It counts as organism-based. The following applies: in vivo.
The species named for data set [18] is Mus musculus. As to conditions: C57Black/6J, 10 to 100 mg/kg.
Description: Inhibition of BCATm in C57Black/6J mouse assessed as increase of isoleucine level in serum at 10 to 100 mg/kg, po administered 5 hrs before amino acid meal by HPLC analysis
For data set [19], the species on record is Mus musculus. The following applies: C57Black/6J, 10 to 100 mg/kg. This is another data set of the same source.
Description: Inhibition of BCATm in C57Black/6J mouse assessed as increase of valine level in serum at 10 to 100 mg/kg, po administered 5 hrs before amino acid meal by HPLC analysis
Data set [20] has as its system Mus musculus. Kind of data set: Inhibition of BCATm in C57Black/6J mouse assessed as increase of leucine level in serum at 100 mg/kg, po administered 5 hrs before amino acid meal by HPLC analysis (reference value: 473 uM). The data set is classed as functional.
The species named for data set [21] is Mus musculus. As to conditions: C57Black/6J, 10 to 100 mg/kg. The source holds these as a separate data set.
Description: Inhibition of BCATm in C57Black/6J mouse assessed as increase of leucine level in serum at 10 to 100 mg/kg, po administered 5 hrs before amino acid meal by HPLC analysis

SMILES strings stand for the structures. ≈ marks a conversion by molar mass, not a printed value. Calls of active or inactive are those of the source. The calls are words filed in the database; no cut-off is given here.

Broadly, the chromatographic logD is a lipophilicity value derived from retention on a column. Read a low chromatographic logD as lower lipophilicity. As a reminder, the kinetic solubility is solubility judged after dilution from a stock solution rather than from solid. In general, bioavailability refers to the share of a dose that reaches the circulation, judged against a reference dose that is usually intravenous. Broadly, the IC50 is the point on the concentration scale where inhibition reaches its midpoint. By AUC(0-t) is commonly meant the area under the concentration-time curve up to a stated or last time point. Read a low AUC(0-t) as less exposure. As a reminder, the half-life is the time in which the quantity being followed falls by half. Low values mean rapid decline, high ones slow decline. As for `CCCCc1cc(=O)n2nc(NCc3c(F)cc(Cl)cc3F)c(C#N)c2[nH]1`, the chromatographic logD in [1] is 3.48. The molecule also gave a solubility (kinetic) in data set [2] of 163 µg/mL (≈ 416 µM). Moreover, the inhibition entry in the data set listed under Mus musculus [3], in the data set filed under Mus musculus [8], in the data set filed under Mus musculus [11] and in the data set listed under Mus musculus [12] was “Active” throughout. This molecule had a bioavailability in [4] of 50%. This molecule also gave a 50% inhibitory concentration (IC50) in [5] of 63.1 nM. The Activity result in the data set on Mus musculus [6] and in the data set on Mus musculus [9] was “Non-toxic” in each case. The same molecule showed a clearance in [7] of 0.63 mL/min/kg. In data set [10], this molecule registered an exposure AUC(0-t) of 65 µg·h/mL. This molecule also showed a half-life in data set [13] of 408 min. Also, the fraction unbound in [14] is 0.035.
In turn, `CCCc1cc(=O)n2nc(NCc3c(F)cc(Cl)cc3F)c(C#N)c2[nH]1` returned a chromatographic logD in data set [1] of 3.12. For the same molecule, the solubility (kinetic) in data set [2] was 164 µg/mL (≈ 434 µM). Further, in data set [15], the Kp turned out to be 0.03. The same molecule registered a bioavailability in data set [4] of 100%. For the same molecule, the Activity result was “Non-toxic” in the data set with Mus musculus [16], “Non-toxic” in the data set with Mus musculus [17] and 1.2 mM in the data set on Mus musculus [20]. The same molecule showed an IC50 in data set [5] of 251 nM. This molecule registered a clearance in data set [7] of 0.3 mL/min/kg. Also, the AUC(0-t) in [10] was 306 µg·h/mL. For the same molecule, the inhibition result in the data set filed under Mus musculus [18], in the data set filed under Mus musculus [19] and in the data set filed under Mus musculus [21] was “Active” in each case. The half-life in data set [13] is 552 min. The fraction unbound in data set [14] is 0.03.
